Measurements published in US6689381B2, “Liposomal benzoquinazoline thymidylate synthase inhibitor formulations” (OSI Pharmaceuticals, Inc., priority 2000, dated 2004).
“And” between values parts separate entries of the source, which are not always exact repeats. Identical values can stand only once. Like-named read-outs stand apart in the source and are kept apart here.

Test: Example 2: single dose plasma pharmacokinetics of free GW1843 and four liposomal formulations, 1 mg/kg iv bolus
Format: in vivo, Sprague Dawley rats
Details: single 1 mg/kg iv bolus; for GW1843 Plasma Concentration: listed as Free GW1843, 1 mg/kg
Description: The plasma pharmacokinetics of free GW1843 and 4 different liposome formulations (see Table 1A; GC-1007-27, GC-1020-36, NA-1022-63A, and NA-1022-59A) of GW1843 in rats following a single intravenous bolus administration are compared. The liposome formulations differed by the pH utilized to load the liposome. NX1843 lot nos. GC-1007-27, GC-1020-36, NA-1022-63A, and NA-1022-59A were loaded at pH 7.0, 7.4, 7.3 and 7.5, respectively.
A total of fifteen Sprague Dawley rats were used in the study. Each rat weighed approximately 250 grams. Three animals were assigned to each group (five groups in total). Individual animals were weighed and dosed at 1 mg/kg body weight by intravenous bolus administration into the tail vein while under isoflurene anesthesia. EDTA blood samples were taken at the time points shown in Table 2 while under isoflurene anesthesia and immediately processed into plasma. Plasma was stored at −20° C. until analysis.
Plasma samples were prepared and analyzed for GW1843 by the use of a non-validated HPLC assay. Following methanol precipitation of plasma protein, the soluble GW1843 was separated by C-18 reverse phase column chromatography. Separation was achieved by an isocratic method. Running buffer consisted of 80% acetonitrile and 20% 100 mM ammonium acetate pH=5.3. Area under the peak versus concentration of GW1843 was used to construct the standard curve.
Pharmacokinetic parameters were determined by non-compartmental analysis (WinNonlin version 1.5). Pharmacokinetic parameters were determined for each experimental group using the average concentration versus time values for each group. The following parameters were calculated: Maximum plasma concentration (Cmax); area under the plasma concentration versus time curve extrapolating to infinite time (AUCinf) or to last time point (AUClast); elimation half-life (Elim.T½); mean residence time (MRT) plasma clearance (Cl) and volume of distribution at steady state (Vss).

[1] = Sprague Dawley, rat, plasma, rats ~250 g, noncompartmental, group average

Cc1nc2ccc3ccc(CNc4ccc5c(c4)CN(C(CCC(=O)O)C(=O)O)C5=O)cc3c2c(=O)[nH]1 (centres unmarked) [GW1843]
GW1843 Plasma Concentration (0.083 h, individual rats): 0.76 µg/mL | GW1843 Plasma Concentration (0.250 h, individual rats): 0.20 µg/mL and 0.19 µg/mL | GW1843 Plasma Concentration (0.500 h, individual rats): 0.11 µg/mL and 0.10 µg/mL | GW1843 Plasma Concentration (1.000 h, individual rats): BLQ and 0.06 μg/mL | concentration at 0.083 h (Sprague Dawley, rat, plasma, iv, 1 mg/kg, 0.083 h, individual rats): 520 ng/mL | concentration at 0.25 h (Sprague Dawley, rat, plasma, iv, 1 mg/kg, 0.250 h, individual rats): 180 ng/mL | concentration at 0.5 h (Sprague Dawley, rat, plasma, iv, 1 mg/kg, 0.500 h, individual rats): 100 ng/mL | concentration at 1 h (Sprague Dawley, rat, plasma, iv, 1 mg/kg, 1.000 h, individual rats): 60 ng/mL | Cmax (Sprague Dawley, rat, plasma, iv, 1 mg/kg, rats ~250 g, noncompartmental, group average, read-out: Cmax): 1280 ng/mL | half-life (Sprague Dawley, rat, plasma, iv, 1 mg/kg, rats ~250 g, noncompartmental, group average, read-out: t½ (elimination half-life) (converted)): ~30 min | Cmax (Sprague Dawley, rat, plasma, iv, 1 mg/kg, rats, text of Example 2, read-out: maximum achieved concentrations (Cmax) in the plasma): 1300 ng/mL | AUC(0-inf) [1]: 263 ng·h/mL | AUC(0-t) [1]: 219 ng·h/mL | MRT inf [1]: 30 min | clearance (Sprague Dawley, rat, plasma, rats ~250 g, noncompartmental, group average, read-out: Cl (converted)): 63.4 mL/min/kg | Vd (Sprague Dawley, rat, plasma, rats ~250 g, noncompartmental, group average, read-out: Vss): 1.89 L/kg | clearance (Sprague Dawley, rat, plasma, rats, text of Example 2, read-out: plasma clearance (converted)): 63.4 mL/min
